According to US20070093520A1, “Method of treatment of diarrhea-predominant irritable bowel syndrome in a subject” (priority 2005, published 2007):

Test system: diarrhea-predominant IBS subjects
Format: in vivo, human
Settings: Cilansetron 2 mg, N=1454
Description: The study was performed in approximately 150 study centers. Approximately 1600 eligible subjects were to be given cilansetron 2 mg TID. At Visit 1, pre-treatment assessments were conducted. […] Subjects were to return to the study site one month later for Visit 3 (Day 31) for their first interim assessment. […] All subjects who discontinued from the study were to have the same post-study assessments required at Visit 7 performed at their early termination visit. […]
Stool specimens were analyzed at every visit for occult blood. An independent GERB had been established to provide advice on GI AEs during the course of the study.
Adverse events were assessed at Baseline, at each clinic visit, and at the end of the study (Month 12 or the early termination visit). All AEs, which occurred during the study were followed up in accordance with good medical practice until resolved or judged no longer clinically significant, or if a condition was chronic, until fully characterized. Adverse events could occur in the specified follow-up period and, regardless of the interval since the last administration of the study medication, were treated in the same manner as an AE which occurred during the treatment with study medication. Each AE was evaluated for duration, severity, seriousness, and causal relationship to the investigational drug. The action taken and the outcome were also recorded.
Specifically, subjects who were lost to follow-up and had no post-Baseline contact with the site were excluded from the Safety population. The subjects who discontinued from the study due to lost to follow-up were identified based on the information collected on the study termination CRF page.
After the pretreatment assessment at Visit 1 (Days […] to −3), subjects were to return to the study site for a Baseline assessment and start the treatment at Visit 2 (Day 1).
For the by time-interval analyses of disposition, prevalence of AEs, and of markedly abnormal and predefined changes in laboratory values, vital signs, and ECGs, the following interval windows were used:
Adverse events that were already present prior to the first dose of cilansetron study medication but increased in severity afterwards were considered as treatment-emergent.
The 5% cutoff point was based on the incidence within higher level terms.
Subjects were counted at most once for each primary system organ class and preferred term. Serious AEs that resolved prior to receiving study medication or occurred more than 30 days after the last dose of study medication were not included in the incidence tables. A listing of all SAEs is presented; SAEs with onset prior to receiving study medication or more than 30 days after discontinuation of study medication were flagged. The listing presents lower level term and preferred term of the SAE, severity, action taken, outcome, and relationship of the SAE, start and stop date of the SAE, study day of onset of the SAE, age, race, and sex.

Cc1nccn1C[C@H]1CCc2c(c3cccc4c3n2CCC4)C1=O [cilansetron, (R)-(−)-4,5,6,8,9,10-hexahydro-10-[(2-methyl-1H-imidazol-1-yl)methyl]-11H-pyrido-[3,2,1-jk]-carbazol-11-one]
15 (1%) n (%): TEAE incidence: Loose Stools
11 (<1%) n (%): TEAE incidence: Tonsillitis NOS | TEAE incidence: Toothache
30 (2%) n (%): TEAE incidence: Haemorrhoids | TEAE incidence: Neurological Signs and Symptoms NEC
20 (1%) n (%): TEAE incidence: Rectal Haemorrhage
22 (2%) n (%): TEAE incidence: Gastrointestinal Histopathology Procedures | TEAE incidence: Intestinal Haemorrhages
38 (3%) n (%): TEAE incidence: Haemorrhoids and Gastrointestinal Varices (Excl Oesophageal)
8 (<1%) n (%): TEAE incidence: Diarrhoea Aggravated
73 (5%) n (%): TEAE incidence: Diarrhoea NOS
28 (2%) n (%): TEAE incidence: Dizziness
36 (2%) n (%): TEAE incidence: Liver Function Analyses
50 (3%) n (%): TEAE incidence: Dyspepsia
104 (7%) n (%): TEAE incidence: Headaches NEC
155 (11%) n (%): TEAE incidence: Nervous system disorders
2 (<1%) n (%): TEAE incidence: Carbohydrate Tolerance Analyses (Incl Diabetes) | TEAE incidence: Carpal Tunnel Syndrome | TEAE incidence: Central Nervous system Vascular Disorders NEC | TEAE incidence: Colitis Ischaemic | TEAE incidence: Colonic Polyp | TEAE incidence: Diaphragmatic Hernias | TEAE incidence: Duodenitis | TEAE incidence: Dysgeusia | TEAE incidence: Electrocardiogram Abnormal NOS | TEAE incidence: Eosinophil Percentage Increased | TEAE incidence: Epigastric Discomfort | TEAE incidence: Faeces Discoloured | TEAE incidence: Gastric Erosions | TEAE incidence: Gastric Ulcer | TEAE incidence: Gastrointestinal Disorders NEC | TEAE incidence: Gastrointestinal Mucosal Dystrophies and Secretion Disorders | TEAE incidence: Gastrointestinal Neoplasms NEC | TEAE incidence: Gastrointestinal Pain NOS | TEAE incidence: Glucose Urine Present | TEAE incidence: Halitosis | TEAE incidence: Headache NOS Aggravated | TEAE incidence: Hiatus Hernia | TEAE incidence: Hypoaesthesia | TEAE incidence: Inguinal Hernia NOS | TEAE incidence: Inguinal Hernias | TEAE incidence: Memory Loss (Excl Dementia) | TEAE incidence: Neutrophil Count Decreased | TEAE incidence: Neutrophil Count Increased | TEAE incidence: Neutrophil Percentage Decreased | TEAE incidence: Oral Candidiasis | TEAE incidence: Otitis Externa NOS | TEAE incidence: Pituitary Analyses Anterior | TEAE incidence: Platelet Count Decreased | TEAE incidence: Red Blood Cell Analyses | TEAE incidence: Red Blood Cells Urine Positive | TEAE incidence: Renal Function Analyses | TEAE incidence: Sinusitis Acute NOS | TEAE incidence: Stomatitis and Ulceration | TEAE incidence: Stools Watery | TEAE incidence: Tension Headaches | TEAE incidence: Tonsillitis Acute NOS | TEAE incidence: Tooth Abscess
19 (1%) n (%): TEAE incidence: Gamma-Glutamyltransferase Increased
23 (2%) n (%): TEAE incidence: Physical Examination Procedures
6 (<1%) n (%): TEAE incidence: Migraine NOS | TEAE incidence: Mononeuropathies | TEAE incidence: Pneumonia NOS | TEAE incidence: Proctalgia | TEAE incidence: Sensory Abnormalities NEC
59 (4%) n (%): TEAE incidence: Dyspeptic Signs and Symptoms
12 (<1%) n (%): TEAE incidence: Gastrointestinal Signs and Symptoms NEC
51 (4%) n (%): TEAE incidence: Faeces Abnormal | TEAE incidence: Influenza
24 (2%) n (%): TEAE incidence: Gastroenteritis NOS
228 (16%) n (%): TEAE incidence: Gastrointestinal Atonic and Hypomotility Disorders NEC
21 (1%) n (%): TEAE incidence: Gastrointestinal Spastic and Hypermotility Disorders
223 (15%) n (%): TEAE incidence: Gastrointestinal and Abdominal Pains (Excl Oral and Throat)
1 (<1%) n (%): TEAE incidence: Cardiac Enzymes Increased | TEAE incidence: Carotid Artery Atheroma | TEAE incidence: Carotid Artery Stenosis | TEAE incidence: Cellulitis | TEAE incidence: Central Nervous System Haemorrhages and Cerebrovascular Accidents | TEAE incidence: Cerebral Infarction | TEAE incidence: Cervical Root Pain | TEAE incidence: Cervical Spinal Cord and Nerve Root Disorders | TEAE incidence: Colitis NOS | TEAE incidence: Defaecation Urgency | TEAE incidence: Dental Discomfort | TEAE incidence: Diarrhoea Haemorrhagic | TEAE incidence: Duodenal Polyp | TEAE incidence: Duodenal Ulcer | TEAE incidence: Duodenal Ulcers and Perforation | TEAE incidence: Dysphagia | TEAE incidence: Dystonias | TEAE incidence: Electrocardiogram Change NOS | TEAE incidence: Electrocardiogram Pr Interval Prolonged | TEAE incidence: Electrocardiogram Pr Shortened | TEAE incidence: Electrocardiogram Q Waves Normal | TEAE incidence: Electrocardiogram Qt Shortened | TEAE incidence: Electrocardiogram T Wave Amplitude Decreased | TEAE incidence: Epigastric Hernia | TEAE incidence: Facial Cranial Nerve Disorders | TEAE incidence: Facial Palsy | TEAE incidence: Food Poisoning NOS | TEAE incidence: Gamma-Glutamyltransferase Decreased | TEAE incidence: Gastric Polyps | TEAE incidence: Gastrointestinal Dyskinetic Disorders | TEAE incidence: Gastrointestinal Motility Disorder NOS | TEAE incidence: Gingival Disorders NEC | TEAE incidence: Gingivitis | TEAE incidence: Glossitis | TEAE incidence: Haematemesis | TEAE incidence: Haematological Analyses NEC | TEAE incidence: Haemoglobin Decreased | TEAE incidence: Haemorrhoids Aggravated | TEAE incidence: Hiccups | TEAE incidence: Hypersomnia | TEAE incidence: Hypoaesthesia Oral | TEAE incidence: Ileus Paralytic | TEAE incidence: Intercostal Neuralgia | TEAE incidence: Intertrigo Candida | TEAE incidence: Intestinal Infections | TEAE incidence: Intestinal Mucosal Hypertrophy | TEAE incidence: Intestinal Spasm | TEAE incidence: Lacunar Infarction | TEAE incidence: Liver Function Tests NOS Abnormal | TEAE incidence: Lumbar Spinal Cord and Nerve Root Disorders | TEAE incidence: Lymphocyte Count Decreased | TEAE incidence: Lymphocyte Count Increased | TEAE incidence: Lymphocyte Percentage Decreased | TEAE incidence: Memory Impairment | TEAE incidence: Meralgia Paraesthetica | TEAE incidence: Migraine Aggravated | TEAE incidence: Monocyte Count Increased | TEAE incidence: Mouth Cyst | TEAE incidence: Narcolepsy and Hypersomnia | TEAE incidence: Nausea Aggravated | TEAE incidence: Non-Mechanical Ileus | TEAE incidence: Non-Site Specific Gastrointestinal Haemorrhages | TEAE incidence: Oesophageal Spasm | TEAE incidence: Oral Soft Tissue Signs and Symptoms | TEAE incidence: Painful Defaecation | TEAE incidence: Pancreatitis Acute | TEAE incidence: Peripheral Neuropathies NEC | TEAE incidence: Peripheral Neuropathy NOS | TEAE incidence: Peritonsillar Abscess | TEAE incidence: Petit Mal Epilepsy | TEAE incidence: Pharyngitis Streptococcal | TEAE incidence: Pharyngotonsillitis | TEAE incidence: Platelet Count Increased | TEAE incidence: Post Herpetic Neuralgia | TEAE incidence: Pseudofolliculitis Barbae | TEAE incidence: Pyelonephritis Acute NOS | TEAE incidence: Qrs Axis Abnormal | TEAE incidence: Radiculitis Lumbosacral | TEAE incidence: Rectal Polyp | TEAE incidence: Rectal Prolapse | TEAE incidence: Rectal Ulcer | TEAE incidence: Red Blood Cell Count Decreased | TEAE incidence: Red Blood Cell Sedimentation Rate Increased | TEAE incidence: Regurgitation of Food | TEAE incidence: Restless Leg Syndrome | TEAE incidence: Sensitivity of Teeth | TEAE incidence: Serum Ferritin Decreased | TEAE incidence: Sinus Headache | TEAE incidence: Sinusitis Chronic NOS | TEAE incidence: Skin and Subcutaneous Tissue Abscess NOS | TEAE incidence: Sleep Apnoea Syndrome | TEAE incidence: Sleep Apnoeas | TEAE incidence: Sleep Talking | TEAE incidence: Stomatitis | TEAE incidence: Taeniasis | TEAE incidence: Tinea Pedis | TEAE incidence: Tongue Disorders NEC | TEAE incidence: Torticollis | TEAE incidence: Tracheobronchitis
4 (<1%) n (%): TEAE incidence: Cystitis NOS | TEAE incidence: Dyspepsia Aggravated | TEAE incidence: Electrocardiogram T Wave Abnormal | TEAE incidence: Gastric Ulcers and Perforation | TEAE incidence: Gastritis Aggravated | TEAE incidence: Herpes Zoster | TEAE incidence: Hyperacidity | TEAE incidence: Mineral and Electrolyte Analyses | TEAE incidence: Neuralgia NOS | TEAE incidence: Nitrite Urine Present | TEAE incidence: Oesophagitis NOS | TEAE incidence: Syncope
32 (2%) n (%): TEAE incidence: Faeces Hard | TEAE incidence: Skeletal and Cardiac Muscle Analyses
5 (<1%) n (%): TEAE incidence: Cystitis Acute NOS | TEAE incidence: Disturbances in Consciousness NEC | TEAE incidence: Eructation | TEAE incidence: Frequent Bowel Movements | TEAE incidence: Paraesthesias and Dysaesthesias | TEAE incidence: Rectal Tenesmus | TEAE incidence: Tracheitis NOS
18 (1%) n (%): TEAE incidence: Eosinophil Count Increased
7 (<1%) n (%): TEAE incidence: Electrocardiogram T Wave Inversion | TEAE incidence: Migraine Headaches | TEAE incidence: Protein Urine Present | TEAE incidence: Tissue Enzyme Analyses NEC
9 (<1%) n (%): TEAE incidence: Faecal Occult Blood Positive | TEAE incidence: Haemorrhoidal Haemorrhage | TEAE incidence: Metabolism Tests NEC
129 (9%) n (%): TEAE incidence: Musculoskeletal and connective tissue disorders
176 (12%) n (%): TEAE incidence: Investigations
13 (<1%) n (%): TEAE incidence: Dental Pain and Sensation Disorders | TEAE incidence: Gastritis NOS | TEAE incidence: Irritable Bowel Syndrome Aggravated
25 (2%) n (%): TEAE incidence: Cholesterol Analyses | TEAE incidence: ECG Investigations
66 (5%) n (%): TEAE incidence: Musculoskeletal and Connective Tissue Signs and Symptoms NEC
587 (40%) n (%): TEAE incidence: Gastrointestinal Disorders
3 (<1%) n (%): TEAE incidence: Dry Mouth | TEAE incidence: Electrocardiogram St Segment Depression | TEAE incidence: Electrocardiogram St Segment Elevation | TEAE incidence: Faecal Abnormality NOS | TEAE incidence: Gastrointestinal Inflammatory Disorders NEC | TEAE incidence: Herpes Simplex | TEAE incidence: Oral Dryness and Saliva Altered | TEAE incidence: Otitis Media NOS | TEAE incidence: Paraesthesia | TEAE incidence: Periodontitis | TEAE incidence: Platelet Analyses | TEAE incidence: Pruritus Ani | TEAE incidence: Pyelonephritis NOS | TEAE incidence: Retching | TEAE incidence: Sciatica | TEAE incidence: Sepsis, Bacteraemia and Viraemia | TEAE incidence: Tooth Caries NOS
